Values after ≈ are worked out from the molar mass of the structure shown. Like-named read-outs stand apart in the source and are kept apart here.
How the values were obtained:
AECO001 (ATCC25922) = test: MIC broth microdilution, AECO001; format: cell-based, E. coli; details: Escherichia coli
Procedure, shortened: (§1)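 MICs come from broth microdilution in cation-adjusted Mueller-Hinton broth, final inoculum 3×10^5–7×10^5 CFU/mL, 18-24 hours at 35° C. Levofloxacin and QC strains served as assay controls.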

[1] = test system: AECO063 (ATCC25922 bearing an acrAB mutation); test: microbe, parasite or virus in culture; format: cell-based, E. coli; details: Escherichia coli, ATCC25922, read-out: MIC AECO063
Procedure, shortened: as §1

APAE001 (ATCC27853) = test: MIC broth microdilution, APAE001; format: cell-based, P. aeruginosa; details: Pseudomonas aeruginosa, ATCC27853, read-out: MIC APAE001, APAE001 (ATCC27853)
Procedure, shortened: as §1

[2] = test system: APAE006 (strain of P. aeruginosa in which all efflux pumps are inactivated); test: microbe, parasite or virus in culture; format: cell-based; details: Pseudomonas aeruginosa, read-out: MIC APAE006, APAE006, all efflux pumps inactivated
Procedure, shortened: (§2)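 (ambient air) in cation-adjusted MHB; inoculum from 0.5 McFarland suspensions, final 3×10^5–7×10^5 CFU/mL; 2-fold serial drug dilutions per CLSI. APAE006: P. aeruginosa with all efflux pumps inactivated.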

[3] = test system: APAE006 in the presence of 8 micrograms per milliliter of polymyxin B nonapeptide; format: cell-based, P. aeruginosa; details: APAE006 with 8 micrograms per milliliter polymyxin B nonapeptide
Procedure, shortened: as §2

[4] = test system: AABA1060 (clinical isolate of Acinetobacter baumannii); test: MIC broth microdilution, AABA1060; format: cell-based; details: Acinetobacter baumannii, read-out: MIC AABA1060
Procedure, shortened: as §1

[5] = test system: ASAU001 (laboratory strain of S. aureus, ATCC29213); test: MIC broth microdilution, ASAU001; format: cell-based; details: Staphylococcus aureus, ATCC29213, read-out: MIC ASAU001
Procedure, shortened: as §1

[6] = ATCC25922, read-out: MIC AECO001
[7] = ATCC25922, read-out: MIC AECO001 HSA AGP

SMILES | MIC (AECO001 (ATCC25922); [6]) [µg/mL] | MIC (AECO001 (ATCC25922); [7]) [µg/mL] | MIC [1] [µg/mL] | MIC (APAE001 (ATCC27853)) [µg/mL] | MIC [2] [µg/mL] | MIC APAE006 + PMBN [3] | MIC [4] [µg/mL] | MIC [5] [µg/mL]
CC(C)CCC#CC#Cc1ccc(C(=O)N[C@H](C(=O)NO)C(C)(C)O)cc1 [Example 91-18] | < 2 | < 2 | < 2 | 2 to 16 (≈ 5.4 to 43.2 µM) | 2 to 16 (≈ 5.4 to 43.2 µM) | A (MIC's of 2.0 μg/mL or less = A) | 2 to 16 (≈ 5.4 to 43.2 µM) | 16 to 64 (≈ 43.2 to 173 µM)
CC(C)CC#CC#Cc1ccc(C(=O)N[C@H](C(=O)NO)C(C)(C)O)cc1 [Example 91-19] | < 2 | < 2 | < 2 | 2 to 16 (≈ 5.61 to 44.9 µM) | < 2 | A (MIC's of 2.0 μg/mL or less = A) | 2 to 16 (≈ 5.61 to 44.9 µM) | 16 to 64 (≈ 44.9 to 180 µM)
CC(C)(O)[C@H](NC(=O)c1ccc(C#CC#CCC2CCCC2)cc1)C(=O)NO [Example 91-20] | < 2 | 2 to 16 (≈ 5.23 to 41.8 µM) | < 2 | 2 to 16 (≈ 5.23 to 41.8 µM) | 2 to 16 (≈ 5.23 to 41.8 µM) | A (MIC's of 2.0 μg/mL or less = A) | 2 to 16 (≈ 5.23 to 41.8 µM) | 16 to 64 (≈ 41.8 to 167 µM)
CC(C)CCC#CC#Cc1ccc(C(=O)N[C@H](C(=O)NO)C(C)(C)N)cc1 [Example 91-21] | < 2 | 2 to 16 (≈ 5.41 to 43.3 µM) | < 2 | 2 to 16 (≈ 5.41 to 43.3 µM) | < 2 | A (MIC's of 2.0 μg/mL or less = A) | 2 to 16 (≈ 5.41 to 43.3 µM) | 2 to 16 (≈ 5.41 to 43.3 µM)
CC(C)CC#CC#Cc1ccc(C(=O)N[C@H](C(=O)NO)C(C)(C)N)cc1 [Example 91-22] | < 2 | 2 to 16 (≈ 5.63 to 45 µM) | < 2 | 2 to 16 (≈ 5.63 to 45 µM) | < 2 | A (MIC's of 2.0 μg/mL or less = A) | 2 to 16 (≈ 5.63 to 45 µM) | 2 to 16 (≈ 5.63 to 45 µM)
CC(C)(N)[C@H](NC(=O)c1ccc(C#CC#CCC2CCCC2)cc1)C(=O)NO [Example 91-23] | < 2 | 2 to 16 (≈ 5.24 to 41.9 µM) | < 2 | 2 to 16 (≈ 5.24 to 41.9 µM) | < 2 | A (MIC's of 2.0 μg/mL or less = A) | 2 to 16 (≈ 5.24 to 41.9 µM) | 2 to 16 (≈ 5.24 to 41.9 µM)
C[C@@H](N)[C@H](NC(=O)c1ccc(C#CC#CCC2CCCC2)cc1)C(=O)NO [Example 91-25] | 16 to 64 (≈ 43.5 to 174 µM) | 16 to 64 (≈ 43.5 to 174 µM) | 16 to 64 (≈ 43.5 to 174 µM) | 16 to 64 (≈ 43.5 to 174 µM) | 2 to 16 (≈ 5.44 to 43.5 µM) | B (MIC's of greater than 2.0 μg/mL to 16.0 μg/mL = B) | 16 to 64 (≈ 43.5 to 174 µM) | 16 to 64 (≈ 43.5 to 174 µM)
CC(C)CCC#CC#Cc1ccc(C(=O)N[C@H](C(=O)NO)[C@@H](C)N)cc1 [Example 91-28] | < 2 | 2 to 16 (≈ 5.63 to 45 µM) | < 2 | 2 to 16 (≈ 5.63 to 45 µM) | < 2 | A (MIC's of 2.0 μg/mL or less = A) | 2 to 16 (≈ 5.63 to 45 µM) | 2 to 16 (≈ 5.63 to 45 µM)
C[C@@H](N)[C@H](NC(=O)c1ccc(C#CC#CC(C)(C)O)cc1)C(=O)NO [Example 91-30] | 16 to 64 (≈ 46.6 to 186 µM) | 16 to 64 (≈ 46.6 to 186 µM) | 2 to 16 (≈ 5.82 to 46.6 µM) | < 2 | < 2 | A (MIC's of 2.0 μg/mL or less = A) | 16 to 64 (≈ 46.6 to 186 µM) | 16 to 64 (≈ 46.6 to 186 µM)
C[C@H](C#CC#Cc1ccc(C(=O)N[C@H](C(=O)NO)[C@@H](C)N)cc1)N1CCOCC1 [Example 92-1, N-((2S,3R)-3-amino-1-(hydroxyamino)-1-oxobutan-2-yl)-4-((R)-5-morpholinohexa-1,3-diynyl)benzamide] | 2 to 16 (≈ 5.02 to 40.2 µM) | 16 to 64 (≈ 40.2 to 161 µM) | 2 to 16 (≈ 5.02 to 40.2 µM) | 2 to 16 (≈ 5.02 to 40.2 µM) | < 2 | A (MIC's of 2.0 μg/mL or less = A) | 16 to 64 (≈ 40.2 to 161 µM) | 16 to 64 (≈ 40.2 to 161 µM)
C[C@@H](N)[C@H](NC(=O)c1ccc(C#CC#C[C@H](C)N2CCOCC2)cc1)C(=O)NO [Example 92-2, N-((2S,3R)-3-amino-1-(hydroxyamino)-1-oxobutan-2-yl)-4-((S)-5-morpholinohexa-1,3-diynyl)benzamide] | 16 to 64 (≈ 40.2 to 161 µM) | 16 to 64 (≈ 40.2 to 161 µM) | 2 to 16 (≈ 5.02 to 40.2 µM) | 16 to 64 (≈ 40.2 to 161 µM) | 2 to 16 (≈ 5.02 to 40.2 µM) | B (MIC's of greater than 2.0 μg/mL to 16.0 μg/mL = B) | 16 to 64 (≈ 40.2 to 161 µM) | 16 to 64 (≈ 40.2 to 161 µM)
C[C@@H](N)[C@H](NC(=O)c1ccc(C#CC#Cc2ccc(NS(C)(=O)=O)cc2)cc1)C(=O)NO [Example 93-1, N-((2S,3R)-3-amino-1-(hydroxyamino)-1-oxobutan-2-yl)-4-((4-(methylsulfonamido)phenyl)buta-1,3-diynyl)benzamide] | < 2 | 16 to 64 (≈ 35.2 to 141 µM) | < 2 | < 2 | < 2 | A (MIC's of 2.0 μg/mL or less = A) | < 2 | 16 to 64 (≈ 35.2 to 141 µM)

— US9617256B2 (priority 2007, dated 2017)
